Measurements taken from patent US6486126B1, “Antioxidant activity in SDG metabolites” (University of Saskatchewan Technologies Incorporated, priority 1999, dated 2002).
Like-named read-outs stand apart in the source and are kept apart here.

How the values were obtained:
[1] = system: zymosan-stimulated polymorphonuclear leukocytes; test: Luminol-dependent chemiluminescence of zymosan-stimulated PMNLs in blood (PMNL-CL); type: cell-based, human; details: for inhibition at 1000 µg/mL / inhibition at 2500 µg/mL / inhibition at 5000 µg/mL: Homo sapiens, Leukocyte; for antioxidant potency as compared to vitamin E: ratio of inhibition of PMNL-CL at 2.5 mg/ml, relative to vitamin E
Procedure: (§1) Antioxidant activity of SDG, SECO, ED, EL and vitamin E (alpha-tochopherol phosphate) was measured using the ability of these compounds to reduce the chemiluminescence of activated PMNLs [polymorphonuclear leukocytes chemiluminescence (PMNL-CL)]. Activated polymorphonuclear leukocytes produce superoxide anion (O2^−), hydrogen peroxide (H2O2), hydroxyl radical (.OH) and singlet oxygen (^1O2). Chemiluminescence is amplified by luminol, which is converted to an excited aminophthalate ion in the presence of oxidizing species like O2^−, H2O2, .OH and ^1O2. Luminol-dependent CL reflects the amount of activated oxygen species generated from activated phagocytes, thus, this method can be used to monitor the reactive oxygen species produced by PMNLs. Agents which scavenge O2^−, H2O2, .OH and ^1O2 would reduce PMNL-CL. The SDG, SECO, ED and EL were all obtained from Agriculture and Agri-Food Canada, Saskatoon, Saskatchewan.
(§2) Venous blood from healthy subjects, after their informed consent, was collected in ethylenediamine tetraacetic acid (EDTA)-containing tubes for PMNL counts, and PMNL-CL. PMNL and WBC counts were made using Technicon H6000 system (Technicon Instruments, Tarrytown, N.Y.). PMNL-CL a measure of reactive oxygen species produced by PMNLs was measured by a method described in Prasad et al., Effect of polymorphonuclear leukocyte-derived oxygen free radicals and hypochlorous acid or cardiac function and some biochemical parameters, Am. Heart J. 119:538-550, 1990. Blood (0.05 ml) was added to a glass tube containing Hank's balanced salt solution (HBSS) buffer (pH 7.40) and luminol at a final concentration of 10^−4 M. To assess the ability of various test materials in the varying amounts (1.0, 2.5, 5.0 and 10 mg/ml) in the powder form, were each added to the test tube containing blood, shaken well and incubated for 15 minutes at room temperature. The final volume of the mixture in these tubes was 0.5 ml. All the test tubes were placed in a luminometer for 5 min at 37° C., and phagocytosis was initiated by the addition of 0.1 ml (10 mg/ml) of opsonized zymosan prepared by previously described method (Prasad et al., 1990). The chemiluminescence was monitored with an Auto Lumat, LB953 luminometer (Egg Berthold, Berthold Analytical Instrument Inc., 472 Amherst Street, Nashua, N.H., 03063) for 3 seconds every 2 or 3 minutes (depending on the sample number) for a period of 60 minutes. The integrated area under the curve gives the total luminal-dependent chemiluminescent response during the period of monitoring, which represents the oxygen derived CL. The difference in the integrated area under zymosan-activated in the absence and in the presence of various compounds under investigation is designated as particular compound inhibitable oxygen derived radical CL. The unit for chemiluminescence is in counts per minute (cpm). The integrated area under the curve is in cpm.m. The unit for chemiluminescence is cpm.m.10^−6 PMNLs because the chemiluminescence is expressed in terms of 10^−6 PMNL counts. The peak chemiluminescence is cpm 10^−6 PMNLs.
The results are expressed as mean±SE and n=sample size. One-way Analysis of Variance (ANOVA) followed by Scheffe test was used to derive differences between different groups. A “p” value of less than 0.05 was considered significant.

[2] = system: unstimulated blood (BL); test: Integrated luminol-dependent chemiluminescence of unstimulated blood; type: cell-based, human; details: 2.5 mg/ml, mean ± SE from 16 samples
Procedure: as §1
as §2, with “The difference in the integrated area under zymosan-activated in the absence and in the presence of various compounds under investigation is designated as particular compound inhibitable oxygen derived radical CL. The unit for chemiluminescence is in counts per minute (cpm). The integrated area under the curve is in cpm.m. The unit for chemiluminescence is cpm.m.10^−6 PMNLs because the chemiluminescence is expressed in terms of 10^−6 PMNL counts. The peak chemiluminescence is cpm 10^−6 PMNLs.” left out
The results are expressed as mean±SE and n=sample size. […]

[3] = 1.0 mg/ml, concentration-response (FIGS. 4-8)
[4] = 2.5 mg/ml, concentration-response (FIGS. 4-8), read-out: inhibition of zymosan-stimulated PMNL-CL
[5] = 5.0 mg/ml, concentration-response (FIGS. 4-8)
[6] = zymosan-stimulated, 2.5 mg/ml, comparison experiment (FIG. 3), read-out: percentage inhibition of PMNL-CL
[7] = 2.5 mg/ml, concentration-response (FIGS. 4-8)
[8] = zymosan-stimulated, 2.5 mg/ml, comparison experiment (FIG. 3)
[9] = 10.0 mg/ml, concentration-response (FIGS. 4-8)

Row | SMILES | inhibition at 1000 µg/mL [1, 3] [%] | inhibition at 2500 µg/mL [1, 4] [%] | inhibition at 5000 µg/mL [1, 5] [%] | inhibition at 2500 µg/mL [1, 6] [%] | antioxidant potency as compared to vitamin E [1] [times] | antioxidant potency relative to SDG (times more potent than SDG) [1] [times] | Integrated CL of unstimulated blood (BL) in the presence of compound [2] | inhibition of zymosan-stimulated PMNL-CL [1, 3] [%] | inhibition of zymosan-stimulated PMNL-CL [1, 7] [%] | inhibition of zymosan-stimulated PMNL-CL [1, 5] [%] | percentage inhibition of PMNL-CL [1, 8] [%] | effect on zymosan-stimulated PMNL-CL (in words) ([1]; 1.0 mg/ml) | inhibition of zymosan-stimulated PMNL-CL [1, 9] [%]
1 | O=C1OC[C@H](Cc2cccc(O)c2)[C@H]1Cc1cccc(O)c1 [EL, enterolactone] | 81 | 86 | 83 | 81.6 | 4.35 | 3.43 | 2.177 ± 0.138 ×10^6 cpm · m · 10^−6 PMNLs | – | – | – | – | – | –
2 | COc1cc(C[C@@H](CO[C@@H]2O[C@H](CO)[C@@H](O)[C@H](O)[C@H]2O)[C@H](CO[C@@H]2O[C@H](CO)[C@@H](O)[C@H](O)[C@H]2O)Cc2ccc(O)c(OC)c2)ccc1O [SDG, secoisolariciresinol diglucoside, reference compound] | – | – | – | – | 1.27 | – | 2.463 ± 0.159 ×10^6 cpm · m · 10^−6 PMNLs | 24 | 30 | 48 | 23.87 | – | –
3 | Cc1c(C)c2c(c(C)c1OP(=O)(O)O)CC[C@@](C)(CCC[C@H](C)CCC[C@H](C)CCCC(C)C)O2 [vitamin E, alpha-tochopherol phosphate, reference compound] | – | – | – | – | – | – | – | – | 17 | 88 | 18.75 | increase in the PMNL-CL | 97
4 | OC[C@H](Cc1cccc(O)c1)[C@H](CO)Cc1cccc(O)c1 [ED, enterodiol] | 82 | 96 | 95 | 94.2 | 5.02 | 3.95 | 1.073 ± 0.048 ×10^6 cpm · m · 10^−6 PMNLs | – | – | – | – | – | –
5 | COc1cc(C[C@@H](CO)[C@H](CO)Cc2ccc(O)c(OC)c2)ccc1O [SECO, secoisolariciresinol] | – | – | – | – | 4.86 | 3.82 | 0.878 ± 0.023 ×10^6 cpm · m · 10^−6 PMNLs | 78 | 93 | 99.5 | 91.2 | – | 100
